Patent publication US5578620A, “Thiazolidine and oxazolidine derivatives, their preparation and their medical use” (Sankyo Company, Limited, priority 1994, dated 1996)
pIC50: −log10 of the molar value.

Assays:
[1] = target: T1, Bovine lens aldose reductase (Bos taurus, UniProt P16116); experiment: Inhibition of Aldose reductase; type: biochemical; settings: for inhibition at 5 µg/mL: read-out: Inhibition at 5 μg/ml
T1 construct: Bovine lens aldose reductase was separated and partially purified; from tissue; host or cells: bovine lens
Procedure: Bovine lens aldose reductase was separated and partially purified by the method of S. Hyman and J. H. Kinoshita [J. Biol. Chem., 240, 877 (1965)] and K. Inagaki, I. Miwa and J. Okuda [Arch. Biochem. Biophys., 316, 337 (1982)], and its activity was determined photometrically by the method of Varma et al. [Biochem. Pharmac., 25, 2505 (1976)]. […]

[2] = test system: blood glucose level (BGL); experiment: Hypoglycemic activity (blood glucose lowering rate) in hyperglycemic KK mice; type: in vivo, male mice of the KK strain; settings: Mus musculus, oral, 18 hours
Procedure: The test animals used were hyperglycemic male mice of the KK strain, each having a body weight more than 40 g. Each animal was orally administered a test compound in the amount shown in the following Table 8 and then allowed to feed freely for 18 hours. At the end of this time, blood was collected from the tail veins without anesthesia. The blood glucose level (BGL) was determined by means of a glucose analyzer (GL-101, manufactured by Mitsubishi Kasei Co. or Glucoroder manufactured by Shino Test Co.).
The blood glucose lowering rate was calculated by the following equation:
Blood glucose lowering rate (%)=
BGLs is the BGL in the group administered a solvent only, but no active compound; and
BGLt is the BGL in the group administered a test compound.
The results are shown in the following Table 8, in which each compound of the present invention is identified by the number of one of the following Examples in which its preparation is illustrated.

[3] = Toxicity, oral administration for 2 weeks; type: in vivo, male F344 rats; settings: 50 mg/kg; for mortality rate: male F344 rats, oral, 2 weeks
Procedure: The toxicity of the compounds of the present invention was tested on male F344 rats, divided into groups of 5. The test compound was adminstered orally to each test animal at a dose of 50 mg/kg of body weight for 2 weeks. The test compounds used were those of Examples 20, 45 (polar, less polar) and 47 (polar).

| pIC50 [1] | inhibition at 5 µg/mL [1] [%] | Structure (SMILES) | inhibition in vivo at 1 mg/kg [2] [%] | other results |
| --- | --- | --- | --- | --- |
| 5.41 | 67.8 | COc1ccc(OCC2CN(C(C)COc3ccc(CC4SC(=O)NC4=O)cc3)C(=O)O2)cc1 (single isomer, unassigned) [31 (less polar), 5-{4-[2-(5-4'-Methoxyphenoxymethyl-2-oxooxazolidin-3-yl)propoxy]benzyl}thiazolidine-2,4-dione] | 21.6 |  |
|  |  | CC(COc1ccc(CC2SC(=O)NC2=O)cc1)N1CC(COc2cccc(Cl)c2)OC1=S (single isomer, unassigned) [Example 45 (less polar), 5-{4-[2-(5-3'-Chlorophenoxymethyl-2-thioxooxazolidin-3-yl)propoxy]benzyl}thiazolidine-2,4-dione] | 27.2 | mortality rate [3]: zero; abnormalities observed during 2 successive weeks ([3]; rat, in vivo, po): no abnormalities which could be attributed to the test coumpounds; hematological examinations (red blood cell counts) ([3]; rat, in vivo, po): slighly decrease in red blood cell counts |
|  |  | CCCC(COc1ccc(CC2SC(=O)NC2=O)cc1)N1CC(COc2cccc(Cl)c2)OC1=O (single isomer, unassigned) [Example 50 (less polar), 5-{4-[2-(5-3'-Chlorophenoxymethyl-2-oxooxazolidin-3-yl)pentyloxy]benzyl}thiazolidine-2,4-dione] | 17.5 |  |
|  |  | CC(COc1ccc(CC2SC(=O)NC2=O)cc1)N1CC(COc2ccc(-c3ccccc3)cc2)OC1=S (centres unmarked) [36 (polar), 5-{4-[2-(5-4'-Phenylphenoxymethyl-2-thioxooxazolidin-3-yl)propoxy]benzyl}thiazolidine-2,4-dione] | 13.7 |  |
|  |  | CC(COc1ccc(CC2SC(=O)NC2=O)cc1)N1CC(COc2cccc(Cl)c2)OC1=S (centres unmarked) [45 (polar), 5-{4-[2-(5-3'-Chlorophenoxymethyl-2-thioxooxazolidin-3-yl)propoxy]benzyl}thiazolidine-2,4-dione] | 23.9 | mortality rate [3]: zero; abnormalities observed during 2 successive weeks ([3]; rat, in vivo, po): no abnormalities which could be attributed to the test coumpounds |
|  |  | CC(C)C(COc1ccc(CC2SC(=O)NC2=O)cc1)N1CC(COc2cccc(Cl)c2)OC1=O (centres unmarked) [51 (polar), 5-{4-[2-(5-3'-Chlorophenoxymethyl-2-oxooxazolidin-3-yl)-3-methylbutoxy]benzyl}thiazolidine-2,4-dione] | 20.8 |  |
| 6.65 | 89.6 | CC(COc1ccc(CC2SC(=O)NC2=O)cc1)N1CC(COc2cccc(Cl)c2)OC1=O (centres unmarked) [Example 1, 5-{4-[2-(5-3'-Chlorophenoxymethyl-2-oxooxazolidin-3-yl)propoxy]benzyl}thiazolidine-2,4-dione] | 28.5 |  |
|  |  | O=C1NC(=O)C(Cc2ccc(OCCN3CC(COc4cccc(Cl)c4)OC3=O)cc2)S1 (centres unmarked) [Example 6, 5-{4-[2-(5-3'-Chlorophenoxymethyl-2-oxooxazolidin-3-yl)ethoxy]benzyl}thiazolidine-2,4-dione] | 19.2 |  |
|  |  | CC(COc1ccc(CC2SC(=O)NC2=O)cc1)NCC(O)Cc1ccccc1 (centres unmarked) [Example 7, 5-{4-[2-(3-Phenyl-2-hydroxypropylamino)propoxy]benzyl}thiazolidine-2,4-dione] | 36.3 |  |
|  |  | C[C@H](COc1ccc(CC2SC(=O)NC2=O)cc1)N1C[C@@H](COc2cccc(Cl)c2)OC1=O (stereo partly drawn) [Example 11, 5-[4-{2(R)-[5(S)-(3-Chlorophenoxymethyl)-2-oxooxazolidin-3-yl]propoxy}benzyl]thiazolidine-2,4-dione] | 24.3 |  |
|  |  | C[C@@H](COc1ccc(CC2SC(=O)NC2=O)cc1)N1C[C@@H](COc2cccc(Cl)c2)OC1=O (stereo partly drawn) [Example 13, 5-[4-{2(S)-[5(S)-(3-Chlorophenoxymethyl)-2-oxooxazolidin-3-yl]propoxy}benzyl]thiazolidine-2,4-dione] | 29.9 |  |
|  |  | CC(COc1ccc(CC2SC(=O)NC2=O)cc1)NCC(O)COCc1ccccc1 (centres unmarked) [Example 15, 5-{4-[2-(3-Benzyloxy-2-hydroxypropylamino)propoxy]benzyl}thiazolidine-2,4-dione] | 19.1 |  |
|  |  | CC(COc1ccc(CC2SC(=O)NC2=O)cc1)NCC(O)COCCc1ccccc1 (centres unmarked) [Example 18, 5-{4-[2'-(3-2'-phenylethoxy-2-hydroxypropylamino)propoxy]benzyl}thiozolidine-2,4-dione] | 10.5 |  |
| 5.44 | 70.1 | CC(COc1ccc(CC2SC(=O)NC2=O)cc1)N1CC(COCc2ccccc2)OC1=O (centres unmarked) [Example 22, 5-{4-[2-(5-Benzyloxymethyl-2-oxooxazolidin-3-yl)propoxy]benzyl}thiazolidine-2,4-dione] | 14.3 |  |
|  |  | CC(COc1ccc(CC2SC(=O)NC2=O)cc1)N1CC(COCCCCCCCCc2ccccc2)OC1=O (centres unmarked) [Example 28, 5-{4-[2-(5-8'-Phenyloctyloxymethyl-2-oxooxazolidin-3-yl)propoxy]benzyl}thiazolidine-2,4-dione] | 13.6 |  |
|  |  | CC(COc1ccc(CC2SC(=O)NC2=O)cc1)N1CC(COCCCCCCCc2ccccc2)OC1=O (centres unmarked) [Example 29, 5-{4-[2-(5-7'-Phenylheptyloxymethyl-2-oxooxazolidin-3-yl)propoxy]benzyl}thiazolidine-2,4-dione] | 18.1 |  |
|  |  | CC(COc1ccc(CC2SC(=O)NC2=O)cc1)N1CC(COc2ccc(-c3ccccc3)cc2)OC1=O (centres unmarked) [Example 35, 5-{4-[2-(5-4'-Phenylphenoxymethyl-2-oxooxazolidin-3-yl)propoxy]benzyl}thiazolidine-2,4-dione] | 13.5 |  |
| 5.18 | 57.4 | CC(COc1ccc(CC2SC(=O)NC2=O)cc1)NCC(O)COCc1cccc(Cl)c1 (centres unmarked) [Example 41, 5-{4-[2-(3-3'-Chlorobenzyloxy-2-hydroxypropylamino)propoxy]benzyl}thiazolidine-2,4-dione] | 18.2 |  |

| Structure (SMILES) | pIC50 [1] | inhibition at 5 µg/mL [1] [%] | inhibition in vivo at 1 mg/kg [2] [%] | other results |
| --- | --- | --- | --- | --- |
| CCC(COc1ccc(CC2SC(=O)NC2=O)cc1)N1CC(COc2cccc(Cl)c2)OC1=O (centres unmarked) [47 (polar), 5-{4-[2-(5-3'-Chlorophenoxymethyl-2-oxooxazolidin-3-yl)butoxy]benzyl}thiazolidine-2,4-dione] | 6.34 | 86.6 | 34.7 | mortality rate [3]: zero; abnormalities observed during 2 successive weeks ([3]; rat, in vivo, po): no abnormalities which could be attributed to the test coumpounds |
| CC(COc1ccc(CC2SC(=O)NC2=O)cc1)NCC(O)COCCCCc1ccccc1 (centres unmarked) [Example 19, 5-{4-[2-(3-4'-Phenylbutoxy-2-hydroxypropylamino)propoxy]benzyl}thiazolidine-2,4-dione] | 5.10 | 56.1 | 15.8 |  |
| CC(COc1ccc(CC2SC(=O)NC2=O)cc1)NCC(O)COCCCCCCc1ccccc1 (centres unmarked) [Example 20, 5-{4-[2-(3-6'-Phenylhexyloxy-2-hydroxypropylamino)propoxy]benzyl}thiazolidine-2,4-dione] | 5.46 | 69.1 | 37.9 | mortality rate [3]: zero; abnormalities observed during 2 successive weeks ([3]; rat, in vivo, po): no abnormalities which could be attributed to the test coumpounds |
